# Read-outs that look alike come from different tables or passages of the source.
# How the values were obtained:
# [1] = tested on: adjuvant-induced arthritis in rats; experiment: Established Adjuvant-Induced Arthritis in Rats (A.A.); assay type: in vivo, Charles River Lewis male rats; details: Rattus norvegicus, 24 h, read-out: A.A. ED50% (ED50% decrease from control paw volume)
# [2] = tested on: stretching or writhing syndrome indicative of pain induced by phenylquinone; experiment: Phenylquinone Writhing Test; assay type: in vivo, female white mice; details: Mus musculus, 0.5 h; oral, fasted mice; at 1/2 hour; read-out: ED50 (effective analgesic dose for 50% of the mice)
# Method: Phenylquinone Writhing Test
# A standard procedure for detecting and comparing the analgesic activity of compounds in this series for which there is good correlation with human efficacy is the standard phenylquinone writhing test modified from Siegmund, et al., Proc. Soc. Exp. Biol. Med. 95, 729 (1957). A test compound suspended in 1% methylcellulose was given orally to fasted (17-21 hours) female white mice, 5-20 animals per double blind test. Aqueous (0.01% phenyl-p-benzoquinone) phenylquinone was injected intraperitoneally at 24 minutes later using 0.20 ml per mouse. […] The effective analgesic dose for 50% of the mice (ED50) was calculated by the moving average method of Thompson, W. R., Bact. Rev. 11, 115-145 (1947); also time of peak action was determined for many of the compounds.
# [3] = oral, rats, 7 daily doses by gavage, paw volume of uninjected left hind paw one day after last dose
Structure (SMILES),ED50 ([1]; po),ED50 [2],"ED50 [1, 3]"
"CC(=O)Oc1ccccc1C(=O)O [Aspirin, aspirin]",305 mg/kg,–,–
"O=[N+]([O-])c1nc(-c2ccc(F)cc2)c(-c2ccc(F)cc2)[nH]1 [Example 1, 4,5-bis(4-Fluorophenyl)-2-nitroimidazole]",–,59 mg/kg,0.6 mg/kg
"COc1ccc(-c2nc([N+](=O)[O-])[nH]c2-c2ccc(OC)cc2)cc1 [Example 2, 4,5-bis(4-Methoxyphenyl)-2-nitroimidazole]",–,< 130 mg/kg,2.5 mg/kg
"CC(C)Cc1ccc(C(C)C(=O)O)cc1 (centres unmarked) [Ibuprofen, ibuprofen]",–,–,100 mg/kg
"COc1ccc2c(c1)c(CC(=O)O)c(C)n2C(=O)c1ccc(Cl)cc1 [Indomethacin, indomethacin]",0.3 mg/kg,–,–
"CCCCC1C(=O)N(c2ccccc2)N(c2ccccc2)C1=O [Phenylbutazone, phenylbutazone]",–,–,10 mg/kg

# — patent US4199592A, “Antiinflammatory 4,5-diaryl-2-nitroimidazoles” (E. I. Du Pont de Nemours and Company, priority 1979, dated 1980)
